In US6355669B1, “Retinoic acid agonists as preventive and therapeutic agents for nephritis” (Eisai Co., Ltd., priority 1997, dated 2002):

What was measured:
human RARγ = target: T1, human RARγ (Homo sapiens, UniProt P13631); test: Transcription-promoting activity via RAR (PLAP reporter in COS-1 cells), RAR-γ; assay type: cell-based; design: expressed in transfected cells; host or cells: COS-1 (African green monkey kidney), transient lipofection; conditions: Relative ED30: ED30 of all-trans-retinoic acid for each receptor = 1
T1 sequence (P13631 1-454): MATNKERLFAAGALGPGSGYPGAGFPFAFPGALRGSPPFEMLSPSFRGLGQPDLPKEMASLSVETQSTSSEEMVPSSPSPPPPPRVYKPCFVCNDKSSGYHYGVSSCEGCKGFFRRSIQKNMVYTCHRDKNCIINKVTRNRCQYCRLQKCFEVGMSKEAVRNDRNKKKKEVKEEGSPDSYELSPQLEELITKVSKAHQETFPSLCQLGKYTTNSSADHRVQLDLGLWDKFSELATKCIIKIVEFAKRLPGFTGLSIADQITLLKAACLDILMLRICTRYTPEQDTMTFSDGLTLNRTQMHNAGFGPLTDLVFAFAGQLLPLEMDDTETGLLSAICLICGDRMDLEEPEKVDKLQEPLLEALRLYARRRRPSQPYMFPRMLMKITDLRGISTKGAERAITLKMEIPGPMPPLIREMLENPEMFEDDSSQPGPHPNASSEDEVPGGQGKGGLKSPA
Protocol: (§1) A human RAR expression vector and a secretory alkali phosphatase (PLAP) gene vector (PLAP vector) having a response sequence integrated upstream for allowing RAR-bound PLAP to be expressed depending on ligand, were tentatively introduced into COS-1 (renal cell line derived from African green monkey). The PLAP, which was produced depending on ligand and secreted into a culture liquid, was measured by chemiluminescence techniques to examine the transcription-promoting activity of each test compound. Further, the ability of the test compound to promote the transcription of each receptor subtype was compared to determine the selectivity of the compound for RAR subtype.
(§2) 2.5×10^4 COS-1 cells were plated onto a 60-mm Petri dish, and after 4 days, the cells were transformed by lipofection with 4 μg expression vector for human RARα, RARβ or RARγ and 4 μg PLAP vector. After 1 day, the cells were recovered and plated at a density of 2×10^4 cells/well on a 96-well culture plate. After 4 hours, the medium was exchanged with a charcoal treated FBS-containing medium, then a diluted solution of all-trans-retinoic acid or a test compound was added thereto, and after 36 hours, the supernatant was recovered from the cell culture. The recovered sample was treated for 10 minutes at 65° C. to eliminate unspecific activity. 15 μl of the sample was mixed with 60 μl of 28 mM sodium carbonate buffer (pH 10) and reacted with 75 μl of a chemifluorescent substrate Smilight™ (Sumitomo Metal Industries, Ltd.) at 37° C. for 30 minutes to determine the […].
(§3) The concentration (ED30) of each test compound showing 30% activity, where it was assumed that the average transcriptional activity induced by and 3 μM all-trans-retinoic acid was 100%, was determined. Then, the relative ED30 of each compound, where it was assumed that the ED30 of all-trans-retinoic acid for each receptor was 1, is shown as Relative ED30* in Tables 4-1 and 4-2.

human RARα = target: T2, human RARα (Homo sapiens, UniProt P10276); test: Transcription-promoting activity via RAR (PLAP reporter in COS-1 cells), RAR-α; assay type: cell-based; design: expressed in transfected cells; host or cells: COS-1 (African green monkey kidney), transient lipofection; conditions: Relative ED30: ED30 of all-trans-retinoic acid for each receptor = 1
T2 sequence (P10276 1-462): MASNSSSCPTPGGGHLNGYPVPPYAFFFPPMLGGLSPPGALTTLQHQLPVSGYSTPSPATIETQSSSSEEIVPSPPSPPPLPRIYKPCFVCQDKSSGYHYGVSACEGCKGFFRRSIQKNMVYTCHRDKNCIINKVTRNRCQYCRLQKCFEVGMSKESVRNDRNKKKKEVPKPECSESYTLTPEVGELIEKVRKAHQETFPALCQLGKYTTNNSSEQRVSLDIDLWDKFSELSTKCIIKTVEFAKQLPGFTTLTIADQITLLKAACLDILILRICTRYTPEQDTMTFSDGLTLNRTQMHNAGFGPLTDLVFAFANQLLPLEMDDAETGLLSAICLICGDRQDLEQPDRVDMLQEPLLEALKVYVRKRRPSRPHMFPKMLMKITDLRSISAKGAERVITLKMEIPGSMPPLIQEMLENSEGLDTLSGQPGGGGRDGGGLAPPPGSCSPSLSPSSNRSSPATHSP
Protocol: as §1, §2, §3

human RARβ = target: T3, human RARβ (Homo sapiens, UniProt P10826); test: Transcription-promoting activity via RAR (PLAP reporter in COS-1 cells), RAR-β; assay type: cell-based; design: expressed in transfected cells; host or cells: COS-1 (African green monkey kidney), transient lipofection; conditions: Relative ED30: ED30 of all-trans-retinoic acid for each receptor = 1
T3 sequence (P10826 1-455): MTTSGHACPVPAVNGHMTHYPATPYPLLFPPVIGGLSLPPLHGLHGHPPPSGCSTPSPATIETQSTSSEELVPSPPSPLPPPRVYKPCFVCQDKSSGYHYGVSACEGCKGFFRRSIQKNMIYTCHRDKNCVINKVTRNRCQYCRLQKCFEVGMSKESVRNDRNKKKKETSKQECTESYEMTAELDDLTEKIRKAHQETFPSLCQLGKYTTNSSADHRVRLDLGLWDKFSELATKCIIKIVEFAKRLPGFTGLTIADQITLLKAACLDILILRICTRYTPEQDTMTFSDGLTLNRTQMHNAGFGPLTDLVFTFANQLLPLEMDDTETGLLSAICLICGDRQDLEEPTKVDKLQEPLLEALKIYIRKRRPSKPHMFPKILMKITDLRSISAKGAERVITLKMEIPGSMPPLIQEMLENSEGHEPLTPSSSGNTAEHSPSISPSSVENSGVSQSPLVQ
Protocol: as §1, §2, §3

anti-ds DNA antibody = test: Mouse model with spontaneous onset of SLE: production of anti-ds DNA antibody; assay type: in vivo, female (NZB×NZW) F1 mice; conditions: 50 mg/kg; examined in the same manner
Protocol: (§4) In this experiment, female (NZB×NZW) F1 mice were used. Administration of each test compound was initiated at the age of 16 weeks, and blood was collected at predetermined intervals from the orbital venous plexus of the animals under anesthesia with ether and examined for anti-DNA (single-stranded chain: ss, double stranded chain: ds) antibody titer in serum. Further, urine was collected and measured for urine protein.
(§5) The medium was administered into the control group.

[1] = system: albuminuria in (NZB×NZW)F1 mice; test: Mouse model with spontaneous onset of SLE: urine protein / onset of albuminuria; assay type: in vivo, female (NZB×NZW) F1 mice; conditions: for Number of animals with Concentration of Urine Protein (mg/ml) <0.3 / Number of animals with Concentration of Urine Protein (mg/ml) >0.3 / Number of animals with Concentration of Urine Protein (mg/ml) >1 / Number of animals with Concentration of Urine Protein (mg/ml) >3 / Number of animals with Concentration of Urine Protein (mg/ml) >10: after 18 weeks of administration (34-week-old), 8 animals
Source text: as §4
The test compounds A, B and D were suspended in 0.5% aqueous methyl cellulose solution and orally administered daily once into the animals for 6 days/week for 18 weeks. The medium was administered into the control group.
The effect of each compound on the onset of albuminuria after 18 weeks of administration (in 34-week-old animals) is shown in Table 2.

anti-ss DNA antibody = test: Mouse model with spontaneous onset of SLE: production of anti-ss DNA antibody; assay type: in vivo, female (NZB×NZW) F1 mice
Protocol: as §4, §5

[2] = system: accelerated Masugi nephritis; test: Rat model with accelerated Masugi nephritis (proteins excreted in urine for 24 hours); assay type: in vivo, Sprague-Dawley strain rats; conditions: dose 0.3 mg/kg, oral once every day; compared with the control group; 0.3 mg/kg
Protocol: Sprague-Dawley strain rats were immunized by subcutaneously administering rabbit γ-globulin in a dose of 4 mg/rat along with Freund's complete adjuvant into the bottoms of their both hind legs. On the 5th day after the rats were immunized, 1 ml of anti-rat glomerular basement membrane rabbit serum diluted 6- or 8-fold was administered via tail veins into the animals. On the 8th day, the rats were forced to be orally administered 8 ml sterilized water and then placed in a metabolism cage, and their urine was collected for 24 hours during which the animals were allowed neither food nor water. As the indicator of the model with accelerated Masugi nephritis, the amount of proteins excreted in urine for 24 hours was used.
as §5

[3] = system: anti-rabbit γ-globulin IgG2a antibody titer; test: Rat model producing antibody (anti-rabbit γ-globulin antibody titer in serum, ELISA); assay type: in vivo, Sprague-Dawley strain rats; conditions: dose 0.3 mg/kg oral once every day for 14 days; 14th day after immunization
Protocol: Sprague-Dawley strain rats were immunized by subcutaneously administering rabbit γ-globulin in a dose of 4 mg/rat along with Freund's complete adjuvant into the bottoms of their both hind legs. On the 14th day after the rats were immunized, blood was collected from their tail veins and examined for anti-rabbit γ-globulin antibody titer in serum by the ELISA method.
The test compounds A, B, C and D were suspended respectively in 0.5% aqueous methyl cellulose solution and orally administered once every day for 14 days from the day on which the animals were immunized with rabbit γ-globulin. The medium was administered into the control group.

[4] = system: anti-dinitrophenyl (DNP) IgG2a antibody titer; test: Mouse model producing antibody (anti-DNP IgG2a antibody titer in serum, ELISA); assay type: in vivo, BALB/c mice; conditions: dose 0.1 mg/kg oral once every day for 10 days; 10th day after immunization
Protocol: BALB/c mice were immunized by administering dinitrophenylated keyhole limpet hemocyanin (DNP-KLH) as antigen intraperitoneally into them in a dose of 100 μg/mouse along with Freund's complete adjuvant. On the 10th day after the day on which the mice were immunized, blood was collected from the orbital venous plexus of the animals under anesthesia with ether and examined for anti-dintrophenyl (DNP) IgG2a antibody titer in serum by the ELISA method.
The test compounds B, E, F, G and H were suspended in 0.5% aqueous methyl cellulose solution and orally administered into the animals once every day for 10 days from the day when the animals were immunized with DNP-KLH. The medium was administered into the control group.

[5] = dose 0.03 mg/kg, after 18 weeks of administration

Row | Compound | Transcription promoting activity ED30* RAR-γ (human RARγ) | Transcription promoting activity ED30* RAR-α (human RARα) | Transcription promoting activity ED30* RAR-β (human RARβ) | Degree of Inhibition of Albuminuria (%) [2] [%] | effect on anti-rabbit γ-globulin IgG2a antibody titer [3] | further results
1 | CC1CCCN(C)c2ncc(-c3ccc(-c4ccc(C(=O)O)cc4)[nH]3)nc21 (stereo not shown) [drawing 28] | 20 | 1.4 | 7.4 |  |  | 
2 | cyclosporin A [reference compound] |  |  |  |  |  | inhibition of production of anti-ds DNA antibody (in words) (anti-ds DNA antibody): did not inhibit; Number of animals with Concentration of Urine Protein (mg/ml) <0.3 ([1]; dose 50 mg/kg): 5; Number of animals with Concentration of Urine Protein (mg/ml) >0.3 ([1]; dose 50 mg/kg): 1; Number of animals with Concentration of Urine Protein (mg/ml) >1 ([1]; dose 50 mg/kg): 2; Number of animals with Concentration of Urine Protein (mg/ml) >3 ([1]; dose 50 mg/kg): 0; Number of animals with Concentration of Urine Protein (mg/ml) >10 ([1]; dose 50 mg/kg): 0; onset of albuminuria (in words) ([1]; dose 50 mg/kg, not statistically significant): showed inhibition; inhibition of production of anti-ss DNA antibody (anti-ss DNA antibody; 50 mg/kg, examined in the same manner, significant): about 85%
3 | C[Si](C)(C)c1cc(C(=O)Nc2ccc(C(=O)O)cc2)cc([Si](C)(C)C)c1 [drawing 31] | 7800 | 6 | 420 |  |  | 
4 | CCn1nc(-c2ccc(-c3ccc(C(=O)O)cc3)[nH]2)cc1C(C)C [drawing 29] | 89 | 0.85 | 14 |  |  | 
5 | Cc1ccc(C)c2c(F)c(-c3ccc(-c4ccc(C(=O)O)cc4)[nH]3)oc12 [Compound C, 4-{2-[5-(3-fluoro-4,7-dimethylbenzofuran-2-yl)pyrrolyl]}benzoic acid] |  |  |  | 87.7 | inhibited significantly | 
6 | CC1(C)CCCc2ncc(-c3ccc(-c4ccc(C(=O)O)cc4)[nH]3)nc21 [drawing 27] | 170 | 0.2 | 11 |  |  | 
7 | CCc1ccc(C)c2cc(-c3ccc(-c4ccc(C(=O)O)cc4)[nH]3)oc12 [Compound D, 4-{2-[5-(7-ethyl-4-methylbenzofuran-2-yl)pyrrolyl]}benzoic acid] |  |  |  | 80.3 | inhibited significantly | onset of albuminuria (in words) [1, 5]: complete inhibition; Number of animals with Concentration of Urine Protein (mg/ml) <0.3 ([1]; dose 0.03 mg/kg): 8; Number of animals with Concentration of Urine Protein (mg/ml) >0.3 ([1]; dose 0.03 mg/kg): 0; Number of animals with Concentration of Urine Protein (mg/ml) >1 ([1]; dose 0.03 mg/kg): 0; Number of animals with Concentration of Urine Protein (mg/ml) >3 ([1]; dose 0.03 mg/kg): 0; Number of animals with Concentration of Urine Protein (mg/ml) >10 ([1]; dose 0.03 mg/kg): 0
8 | COCc1cc2c(cc1-c1ccc(-c3ccc(C(=O)O)cc3)[nH]1)C(C)(C)CCC2(C)C [drawing 30] | 62 | 1.9 | 29 |  |  | 
9 | CC1(C)CCC(C)(C)c2nc(-c3ccc(-c4ccc(C(=O)O)cc4)[nH]3)cnc21 [drawing 26] | 1.9 | 0.21 | 1.4 |  |  | 
10 | O=C(O)c1ccc(-c2ccc(-c3cc4c(C(F)(F)F)ccc(F)c4o3)[nH]2)cc1 [Compound B, 4-{2-[5-(7-fluoro-4-trifluoromethylbenzofuran-2-yl)pyrrolyl]}benzoic acid] |  |  |  | 90.7 | inhibited significantly | onset of albuminuria (in words) [1, 5]: complete inhibition; Number of animals with Concentration of Urine Protein (mg/ml) <0.3 ([1]; dose 0.03 mg/kg): 8; Number of animals with Concentration of Urine Protein (mg/ml) >0.3 ([1]; dose 0.03 mg/kg): 0; Number of animals with Concentration of Urine Protein (mg/ml) >1 ([1]; dose 0.03 mg/kg): 0; Number of animals with Concentration of Urine Protein (mg/ml) >3 ([1]; dose 0.03 mg/kg): 0; Number of animals with Concentration of Urine Protein (mg/ml) >10 ([1]; dose 0.03 mg/kg): 0; inhibition of production of anti-ss DNA antibody (in words) (anti-ss DNA antibody; 0.03 mg/kg oral, after 16 weeks of administration): significant inhibition; effect on anti-DNP IgG2a [4]: significantly inhibited
